Measured values: US20260027116A1, “Methods of Treating Chronic Graft-Versus-Host Disease Following Allogeneic Hematopoietic Stem Cell Transplantation” (Kadmon Corporation, LLC, priority 2022, published 2026)

Columns and labels:
P-gp = P-gp (Homo sapiens, UniProt P08183); experiment: transporter inhibition in vitro; assay type: in vitro ADME; details: at clinically relevant concentrations
lung function = experiment: Example 1: percent predicted TLC change from baseline; assay type: in vivo, human; details: mean (SD)
Description: Change From Baseline in Percent Predicted Total Lung Capacity (TLC) at Each Specified Time Points. TLC is the volume of air in the lungs upon the maximum effort of inspiration. Baseline value was defined as valid and last non-missing value obtained within 28 days prior to participant receiving first study medication. EOT visit was performed within 3 days after the participant's last dose of study drug. […] Analysis was performed on mITT population. Here, ‘number analyzed’=participants with available data for each specified category. Here, ‘0’ in the number analyzed field signifies that none of the participants were available for the analysis at the specified time points.

P-gp, sequence (P08183 whole entry): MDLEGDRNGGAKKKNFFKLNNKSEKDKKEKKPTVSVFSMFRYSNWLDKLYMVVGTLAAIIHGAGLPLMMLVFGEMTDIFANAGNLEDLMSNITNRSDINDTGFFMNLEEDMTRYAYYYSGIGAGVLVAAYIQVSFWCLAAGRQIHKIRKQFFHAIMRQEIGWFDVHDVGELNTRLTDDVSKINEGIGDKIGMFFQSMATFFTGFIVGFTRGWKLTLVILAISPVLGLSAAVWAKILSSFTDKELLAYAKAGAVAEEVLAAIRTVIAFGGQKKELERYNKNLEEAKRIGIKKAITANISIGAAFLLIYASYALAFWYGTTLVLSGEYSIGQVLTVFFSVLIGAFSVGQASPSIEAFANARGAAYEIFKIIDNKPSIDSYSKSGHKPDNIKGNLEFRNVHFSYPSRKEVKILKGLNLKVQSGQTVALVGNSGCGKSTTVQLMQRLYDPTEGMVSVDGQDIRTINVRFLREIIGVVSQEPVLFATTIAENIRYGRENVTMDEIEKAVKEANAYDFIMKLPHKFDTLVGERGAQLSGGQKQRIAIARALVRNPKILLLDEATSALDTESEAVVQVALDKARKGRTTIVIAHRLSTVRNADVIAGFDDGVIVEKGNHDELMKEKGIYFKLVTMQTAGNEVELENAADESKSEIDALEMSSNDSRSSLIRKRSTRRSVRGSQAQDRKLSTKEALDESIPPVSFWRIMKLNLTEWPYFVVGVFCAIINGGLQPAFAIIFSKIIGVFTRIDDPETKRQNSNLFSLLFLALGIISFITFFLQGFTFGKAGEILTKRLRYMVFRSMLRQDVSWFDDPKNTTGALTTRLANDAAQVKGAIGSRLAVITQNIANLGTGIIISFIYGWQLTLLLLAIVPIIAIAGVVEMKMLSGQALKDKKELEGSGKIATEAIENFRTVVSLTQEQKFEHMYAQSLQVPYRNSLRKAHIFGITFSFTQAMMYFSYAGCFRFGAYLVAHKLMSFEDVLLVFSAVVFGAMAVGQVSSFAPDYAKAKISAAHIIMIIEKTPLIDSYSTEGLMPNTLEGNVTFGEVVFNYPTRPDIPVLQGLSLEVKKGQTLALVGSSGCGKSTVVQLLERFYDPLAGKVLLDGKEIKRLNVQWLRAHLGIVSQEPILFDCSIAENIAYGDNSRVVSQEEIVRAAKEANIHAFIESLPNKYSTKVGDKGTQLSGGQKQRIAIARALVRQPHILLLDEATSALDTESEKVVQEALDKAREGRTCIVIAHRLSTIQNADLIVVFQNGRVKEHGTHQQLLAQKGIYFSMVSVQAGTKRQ

## CC(C)NC(=O)COc1cccc(-c2nc(Nc3ccc4[nH]ncc4c3)c3ccccc3n2)c1 [Belumosudil, 2-{3-[4-(1H-indazol-5-ylamino)-2-quinazolinyl]phenoxy}-N-(propan-2-yl) acetamide]
P-gp
  inhibition of P-gp: inhibits
Lung function; Cohort 1: 200 mg QD, Cycle 3, Day 1
  Change From Baseline in Percent Predicted Total Lung Capacity (TLC): 1.6 (11.9) Percent Predicted TLC
Lung function; Cohort 1: 200 mg QD, Cycle 5, Day 1
  Change From Baseline in Percent Predicted Total Lung Capacity (TLC): −2.6 (16.8) Percent Predicted TLC
Lung function; Cohort 1: 200 mg QD, Cycle 7, Day 1
  Change From Baseline in Percent Predicted Total Lung Capacity (TLC): −3.7 (6.6) Percent Predicted TLC
Lung function; Cohort 1: 200 mg QD, Cycle 9, Day 1
  Change From Baseline in Percent Predicted Total Lung Capacity (TLC): −2.9 (6.1) Percent Predicted TLC
Lung function; Cohort 1: 200 mg QD, Cycle 11, Day 1
  Change From Baseline in Percent Predicted Total Lung Capacity (TLC): 0.7 (4.3) Percent Predicted TLC
Lung function; Cohort 1: 200 mg QD, Cycle 12, Day 1
  Change From Baseline in Percent Predicted Total Lung Capacity (TLC): −9.0 (—) Percent Predicted TLC
Lung function; Cohort 1: 200 mg QD, Cycle 13, Day 1
  Change From Baseline in Percent Predicted Total Lung Capacity (TLC): −0.3 (7.1) Percent Predicted TLC
Lung function; Cohort 1: 200 mg QD, Cycle 14, Day 1
  Change From Baseline in Percent Predicted Total Lung Capacity (TLC): 23.0 (—) Percent Predicted TLC
Lung function; Cohort 1: 200 mg QD, Cycle 15, Day 1
  Change From Baseline in Percent Predicted Total Lung Capacity (TLC): −2.8 (10.8) Percent Predicted TLC
Lung function; Cohort 1: 200 mg QD, Cycle 16, Day 1
  Change From Baseline in Percent Predicted Total Lung Capacity (TLC): −3.0 (—) Percent Predicted TLC
Lung function; Cohort 1: 200 mg QD, Cycle 17, Day 1
  Change From Baseline in Percent Predicted Total Lung Capacity (TLC): −3.0 (6.2) Percent Predicted TLC
Lung function; Cohort 1: 200 mg QD, Cycle 19, Day 1
  Change From Baseline in Percent Predicted Total Lung Capacity (TLC): −4.6 (6.1) Percent Predicted TLC
Lung function; Cohort 1: 200 mg QD, Cycle 21, Day 1
  Change From Baseline in Percent Predicted Total Lung Capacity (TLC): 0.3 (9.3) Percent Predicted TLC
Lung function; Cohort 1: 200 mg QD, Cycle 23, Day 1
  Change From Baseline in Percent Predicted Total Lung Capacity (TLC): 0.0 (8.7) Percent Predicted TLC
Lung function; Cohort 1: 200 mg QD, Cycle 24, Day 1
  Change From Baseline in Percent Predicted Total Lung Capacity (TLC): 0.0 (—) Percent Predicted TLC
Lung function; Cohort 1: 200 mg QD, Cycle 25, Day 1
  Change From Baseline in Percent Predicted Total Lung Capacity (TLC): −3.0 (7.1) Percent Predicted TLC
Lung function; Cohort 1: 200 mg QD, Cycle 26, Day 1
  Change From Baseline in Percent Predicted Total Lung Capacity (TLC): 0.0 (—) Percent Predicted TLC
Lung function; Cohort 1: 200 mg QD, Cycle 27, Day 1
  Change From Baseline in Percent Predicted Total Lung Capacity (TLC): 5.5 (16.3) Percent Predicted TLC
Lung function; Cohort 1: 200 mg QD, Cycle 29, Day 1
  Change From Baseline in Percent Predicted Total Lung Capacity (TLC): −1.0 (17.0) Percent Predicted TLC
Lung function; Cohort 1: 200 mg QD, Cycle 30, Day 1
  Change From Baseline in Percent Predicted Total Lung Capacity (TLC): 7.0 (—) Percent Predicted TLC
Lung function; Cohort 1: 200 mg QD, Cycle 31, Day 1
  Change From Baseline in Percent Predicted Total Lung Capacity (TLC): 7.5 (17.7) Percent Predicted TLC
Lung function; Cohort 1: 200 mg QD, Cycle 32, Day 1
  Change From Baseline in Percent Predicted Total Lung Capacity (TLC): 1.0 (—) Percent Predicted TLC
Lung function; Cohort 1: 200 mg QD, Cycle 33, Day 1
  Change From Baseline in Percent Predicted Total Lung Capacity (TLC): 14.0 (11.3) Percent Predicted TLC
Lung function; Cohort 1: 200 mg QD, Cycle 34, Day 1
  Change From Baseline in Percent Predicted Total Lung Capacity (TLC): 2.0 (—) Percent Predicted TLC
Lung function; Cohort 1: 200 mg QD, Cycle 35, Day 1
  Change From Baseline in Percent Predicted Total Lung Capacity (TLC): 10.5 (7.8) Percent Predicted TLC
Lung function; Cohort 1: 200 mg QD, Cycle 36, Day 1
  Change From Baseline in Percent Predicted Total Lung Capacity (TLC): 6.0 (—) Percent Predicted TLC
Lung function; Cohort 1: 200 mg QD, Cycle 48, Day 1
  Change From Baseline in Percent Predicted Total Lung Capacity (TLC): −13.0 (—) Percent Predicted TLC
Lung function; Cohort 1: 200 mg QD, Cycle 49, Day 1
  Change From Baseline in Percent Predicted Total Lung Capacity (TLC): 5.0 (—) Percent Predicted TLC
Lung function; Cohort 1: 200 mg QD, Cycle 51, Day 1
  Change From Baseline in Percent Predicted Total Lung Capacity (TLC): 15.0 (—) Percent Predicted TLC
Lung function; Cohort 1: 200 mg QD, Cycle 52, Day 1
  Change From Baseline in Percent Predicted Total Lung Capacity (TLC): 1.0 (—) Percent Predicted TLC
Lung function; Cohort 1: 200 mg QD, Cycle 53, Day 1
  Change From Baseline in Percent Predicted Total Lung Capacity (TLC): 15.0 (—) Percent Predicted TLC
Lung function; Cohort 1: 200 mg QD, Cycle 54, Day 1
  Change From Baseline in Percent Predicted Total Lung Capacity (TLC): 4.0 (—) Percent Predicted TLC
Lung function; Cohort 1: 200 mg QD, Cycle 55, Day 1
  Change From Baseline in Percent Predicted Total Lung Capacity (TLC): 29.0 (—) Percent Predicted TLC
Lung function; Cohort 1: 200 mg QD, Cycle 56, Day 1
  Change From Baseline in Percent Predicted Total Lung Capacity (TLC): 9.0 (—) Percent Predicted TLC
Lung function; Cohort 1: 200 mg QD, Cycle 57, Day 1
  Change From Baseline in Percent Predicted Total Lung Capacity (TLC): 18.0 (—) Percent Predicted TLC
Lung function; Cohort 1: 200 mg QD, Cycle 58, Day 1
  Change From Baseline in Percent Predicted Total Lung Capacity (TLC): 5.0 (—) Percent Predicted TLC
Lung function; Cohort 1: 200 mg QD, Cycle 60, Day 1
  Change From Baseline in Percent Predicted Total Lung Capacity (TLC): −3.0 (—) Percent Predicted TLC
Lung function; Cohort 1: 200 mg QD, Cycle 61, Day 1
  Change From Baseline in Percent Predicted Total Lung Capacity (TLC): 5.0 (—) Percent Predicted TLC
Lung function; Cohort 1: 200 mg QD, Cycle 62, Day 1
  Change From Baseline in Percent Predicted Total Lung Capacity (TLC): −1.0 (—) Percent Predicted TLC
Lung function; Cohort 1: 200 mg QD, Cycle 63, Day 1
  Change From Baseline in Percent Predicted Total Lung Capacity (TLC): 12.0 (—) Percent Predicted TLC
Lung function; Cohort 1: 200 mg QD, Cycle 67, Day 1
  Change From Baseline in Percent Predicted Total Lung Capacity (TLC): 12.0 (—) Percent Predicted TLC
Lung function; Cohort 1: 200 mg QD, EOT
  Change From Baseline in Percent Predicted Total Lung Capacity (TLC): 5.2 (27.5) Percent Predicted TLC
Lung function; Cohort 2: 200 mg BID, Cycle 3, Day 1
  Change From Baseline in Percent Predicted Total Lung Capacity (TLC): 1.9 (8.5) Percent Predicted TLC
Lung function; Cohort 2: 200 mg BID, Cycle 5, Day 1
  Change From Baseline in Percent Predicted Total Lung Capacity (TLC): −7.2 (10.5) Percent Predicted TLC
Lung function; Cohort 2: 200 mg BID, Cycle 7, Day 1
  Change From Baseline in Percent Predicted Total Lung Capacity (TLC): −4.4 (6.3) Percent Predicted TLC
Lung function; Cohort 2: 200 mg BID, Cycle 8, Day 1
  Change From Baseline in Percent Predicted Total Lung Capacity (TLC): −5.0 (—) Percent Predicted TLC
Lung function; Cohort 2: 200 mg BID, Cycle 9, Day 1
  Change From Baseline in Percent Predicted Total Lung Capacity (TLC): −6.0 (8.5) Percent Predicted TLC
Lung function; Cohort 2: 200 mg BID, Cycle 10, Day 1
  Change From Baseline in Percent Predicted Total Lung Capacity (TLC): −18.5 (6.4) Percent Predicted TLC
Lung function; Cohort 2: 200 mg BID, Cycle 11, Day 1
  Change From Baseline in Percent Predicted Total Lung Capacity (TLC): −5.2 (11.2) Percent Predicted TLC
